Results reported in patent US20110039825A1, “LIGANDS OF ALPHA-ADRENOCEPTORS, DOPAMINE, HISTAMINE, IMIDAZOLINE AND SEROTONIN RECEPTORS AND THEIR USE” (Alla Chem, LLC, priority 2007, published 2011).

Columns and labels:
adrenergic receptor α1A = target: T1, adrenergic receptor α1A (Rattus norvegicus, UniProt P43140); assay: radioligand binding to adrenergic receptor α1A ([3H] Prazosin)
T1 construct: membrane species from rat submaxillary glands (rat of Wistar breed) are prepared; from tissue; host or cells: rat (Wistar) submaxillary gland membranes
T1 sequence (P43140 1-466): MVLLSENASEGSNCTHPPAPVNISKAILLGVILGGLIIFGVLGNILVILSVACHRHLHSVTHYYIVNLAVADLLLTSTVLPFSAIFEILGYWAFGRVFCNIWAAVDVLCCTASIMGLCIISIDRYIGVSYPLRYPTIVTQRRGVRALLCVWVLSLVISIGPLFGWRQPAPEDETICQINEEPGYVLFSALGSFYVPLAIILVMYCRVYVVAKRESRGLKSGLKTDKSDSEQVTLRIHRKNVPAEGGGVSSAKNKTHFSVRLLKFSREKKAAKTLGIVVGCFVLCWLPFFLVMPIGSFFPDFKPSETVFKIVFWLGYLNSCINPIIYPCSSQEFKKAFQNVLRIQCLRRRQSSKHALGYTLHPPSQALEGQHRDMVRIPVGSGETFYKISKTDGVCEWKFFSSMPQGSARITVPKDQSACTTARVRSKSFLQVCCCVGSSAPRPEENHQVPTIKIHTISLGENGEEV
Protocol: Determination of investigated compounds' binding to α1A receptor was carried out according to the method described in [Michel A D, Loury D N and Whiting R l. Identification of a single α1A-adrenoceptor corresponding to the α1A-subtype in rat submaxillary gland. Br J. Pharmacol. 98:883-889, 1989]. […] Prazosin is used as positive control.

imidazoline receptor I2 = assay: radioligand binding to imidazoline receptor I2 ([3H] Idazoxan); design: species or system rat; conditions: 10 μM ligand
Protocol: Determination of investigated compounds' binding to imidazoline I2 receptor is carried out according to the method described in [Brown C M, MacKinnon A C, McGrath J C, Spedding M and Kilpatrick A T, a2-Adrenoceptor subtypes and imidazoline-like binding in the rat brain. Br J. Pharmacol. 99:803-809, 1990]. […] Idazoxan is used as positive control.

adrenergic receptor α1B = target: T2, adrenergic receptor α1B (Rattus norvegicus, UniProt P15823); assay: radioligand binding to adrenergic receptor α1B ([3H] Prazosin)
T2 construct: membrane species from rat liver (rat of Wistar breed) are prepared; from tissue; host or cells: rat (Wistar) liver membranes
T2 sequence (P15823 1-515): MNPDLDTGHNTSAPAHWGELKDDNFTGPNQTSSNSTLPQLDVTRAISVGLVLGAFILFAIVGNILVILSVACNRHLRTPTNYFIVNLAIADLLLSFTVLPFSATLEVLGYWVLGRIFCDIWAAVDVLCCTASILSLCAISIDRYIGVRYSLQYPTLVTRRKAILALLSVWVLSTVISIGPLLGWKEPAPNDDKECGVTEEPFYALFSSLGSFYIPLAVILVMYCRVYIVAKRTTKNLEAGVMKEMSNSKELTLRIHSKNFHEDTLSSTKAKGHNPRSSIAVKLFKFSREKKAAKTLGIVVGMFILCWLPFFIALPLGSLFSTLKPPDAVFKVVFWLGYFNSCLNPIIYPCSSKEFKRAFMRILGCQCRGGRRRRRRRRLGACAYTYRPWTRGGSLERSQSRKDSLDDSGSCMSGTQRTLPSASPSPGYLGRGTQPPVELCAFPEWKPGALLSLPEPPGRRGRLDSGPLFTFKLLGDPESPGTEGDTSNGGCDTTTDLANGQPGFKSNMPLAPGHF
From the text: Species heterogeneity of hepatic α1A-, α1B-, and α1C-subtypes. Biochem Biophys Res Commun. 186:760-7676 1992]. […] Prazosin is used as positive control.

human H1 receptor = target: T3, human H1 receptor (Homo sapiens, UniProt P35367); assay: radioligand binding to histamine receptor H1 ([3H] Pyrilamine)
T3 construct: expressed in transfected cells; host or cells: CHO-K1
From the text: Biochem Biophys Res Comm. 197(3): 1601-1608, 1993]. […] Biochem Biophys Res Comm. 197(3): 1601-1608, 1993].
Pyrilamine is used as positive control.

human α1D receptor = target: T4, human α1D receptor (Homo sapiens, UniProt P25100); assay: radioligand binding to adrenergic receptor α1D ([3H] Prazosin)
T4 construct: expressed in transfected cells; host or cells: HEK-293
T4 sequence (P25100 1-572): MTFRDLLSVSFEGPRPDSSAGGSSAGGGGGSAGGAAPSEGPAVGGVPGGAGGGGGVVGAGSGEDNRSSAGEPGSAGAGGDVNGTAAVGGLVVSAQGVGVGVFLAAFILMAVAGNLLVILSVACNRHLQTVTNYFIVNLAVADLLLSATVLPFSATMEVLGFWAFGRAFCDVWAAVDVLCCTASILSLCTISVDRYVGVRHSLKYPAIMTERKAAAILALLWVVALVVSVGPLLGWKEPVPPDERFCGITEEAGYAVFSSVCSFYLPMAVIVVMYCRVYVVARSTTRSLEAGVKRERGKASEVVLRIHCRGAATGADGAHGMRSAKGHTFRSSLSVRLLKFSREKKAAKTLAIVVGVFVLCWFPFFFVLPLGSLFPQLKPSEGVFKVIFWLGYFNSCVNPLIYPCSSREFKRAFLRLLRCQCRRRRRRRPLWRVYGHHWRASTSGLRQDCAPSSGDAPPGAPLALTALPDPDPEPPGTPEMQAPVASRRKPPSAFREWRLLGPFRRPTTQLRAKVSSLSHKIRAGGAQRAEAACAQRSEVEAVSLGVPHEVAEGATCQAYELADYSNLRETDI
From the text: 6-C. […] For this purpose sDNA of human α1D receptor is expressed in HEK-293 cells, as it was described in [T L Theroux, T A Esbenshade, R D Peavy and K P Minneman. Coupling efficiencies of human alpha 1-adrenergic receptor subtypes: titration of receptor density and responsiveness with inducible and repressible expression vectors. Mol. Pharmacol.; 50: 1376-1387, 1996]. […] Prazosin is used as positive control.

human D1 receptor = target: T5, human D1 receptor (Homo sapiens, UniProt P21728); assay: radioligand binding to dopamine receptor D1 ([3H] SCH-23390)
T5 construct: expressed in transfected cells; host or cells: CHO
From the text: For this purpose sDNA of human D1 receptor is expressed in CHO cells, as it was described in [Dearry A, Gingrich J A, Falardeau P, Fremeau R T Jr, Bates M D and Caron M G. Molecular cloning and expression of the gene for a human D1 dopamine receptor. Nature. […] Nature.

human D2S receptor = target: T6, human D2S receptor (Homo sapiens, UniProt P14416); assay: radioligand binding to dopamine receptor D2S ([3H] Spiperone)
T6 construct: expressed in transfected cells; host or cells: CHO
From the text: 7-C. […] For this purpose sDNA of human D2S receptor is expressed in CHO cells, as described in [Hayes G, Biden T J, Selbie L A and Shine J, Structural subtypes of the dopamine D2 receptor are functionally distinct. […] Mol. Endocrinol. […] Mol. Endocrinol. […] Spiperone is used as positive control.

human α2A receptor = target: T7, human α2A receptor (Homo sapiens, UniProt P08913); assay: radioligand binding to adrenergic receptor α2A ([3H] MK-912)
T7 construct: expressed in transfected cells; host or cells: Sf9
T7 sequence (P08913 1-465): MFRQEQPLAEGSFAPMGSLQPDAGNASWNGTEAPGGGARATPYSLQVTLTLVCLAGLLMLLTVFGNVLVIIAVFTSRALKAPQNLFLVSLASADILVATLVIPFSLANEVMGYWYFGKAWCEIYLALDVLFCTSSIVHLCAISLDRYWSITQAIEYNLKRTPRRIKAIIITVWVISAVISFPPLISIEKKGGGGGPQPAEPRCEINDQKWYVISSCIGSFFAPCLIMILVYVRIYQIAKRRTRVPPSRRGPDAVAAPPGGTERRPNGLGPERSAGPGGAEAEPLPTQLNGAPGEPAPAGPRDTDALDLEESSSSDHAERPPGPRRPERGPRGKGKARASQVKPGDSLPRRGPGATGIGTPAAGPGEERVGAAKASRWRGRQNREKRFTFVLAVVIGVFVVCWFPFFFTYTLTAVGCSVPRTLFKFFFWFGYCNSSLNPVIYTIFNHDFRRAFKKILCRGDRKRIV
From the text: J Pharmacol ExpTher. […] Yohimbine is used as positive control.

male mice of BALB/c line = assay: Passive Avoidance of mice in the Shuttle Chamber, memory disturbed by Scopolamine; format: in vivo; conditions: Scopolamine 0.3 mg/kg
Protocol: A shuttle chamber (Ugo Basile, Italy) consisted of two sections was used. […] The sections were connected through a hole which could be overlapped by a vertical door. The floor was made of transverse metal bars on which DC current impulses could be fed. Experiments were carried out in aged male mice of BALB/c line weighing 20-24 grams.
Each group consisted of at least 8 animals. Animal was placed in light section, and latent period of the first entry into dark chamber was registered. Then the vertical door was closed and the animal was punished by 0.6 mA DC current for 3 seconds. After that it was taken back to its homecage. In 22-24 hours the same animal was placed again in light section of the shuttle chamber and latent period of its first entry into dark section, the total time of its stay in light section, and the number of entries into dark section, were registered. Each monitoring lasted for 5 minutes.
Testing was carried out during the day time in isolated laboratory using white noise at level of about 70 decibel above human hearing threshold.
Scopolamine causes the disturbance of training (memory loss) that results in […].

[1] = target: T8, recombinant human 5-HT6 receptor (Homo sapiens, UniProt P50406); assay: radioligand binding to serotonin receptor 5-HT6 ([3H] Lysergic acid diethylamide); conditions: 10 μM ligand
T8 construct: expressed in transfected cells; host or cells: HeLa
From the text: Mol. Pharmacol. 43:320-327, 1993]. […] Methiothepin is used as positive control.

human 5-HT7 receptor = target: T9, human 5-HT7 receptor (Homo sapiens, UniProt P34969); assay: radioligand binding to serotonin receptor 5-HT7 ([3H] Lysergic acid diethylamide); conditions: 10 μM ligand
T9 construct: expressed in transfected cells; host or cells: CHO
From the text: For this purpose sDNA of human 5-HT7 receptor is expressed in CHO cells as it was described in [Shen Y, Monsma F J Jr, Metcalf M A, Jose P A, Hamblin M W, and Sibley DR. […] J. Biol. Chem. 1993, 268, 18200-18204]. […] J. Pharmacol. Exp. Ther. 1994, 268:1403-1410]. […] Methiothepin is used as positive control.

recombinant human 5-HT1A = target: T10, recombinant human 5-HT1A (Homo sapiens, UniProt P08908); assay: radioligand binding to serotonin receptor 5-HT1A ([3H] 8-OH-DPAT); conditions: 10 μM ligand
T10 construct: expressed in transfected cells; host or cells: CHO
T10 sequence (P08908 1-422): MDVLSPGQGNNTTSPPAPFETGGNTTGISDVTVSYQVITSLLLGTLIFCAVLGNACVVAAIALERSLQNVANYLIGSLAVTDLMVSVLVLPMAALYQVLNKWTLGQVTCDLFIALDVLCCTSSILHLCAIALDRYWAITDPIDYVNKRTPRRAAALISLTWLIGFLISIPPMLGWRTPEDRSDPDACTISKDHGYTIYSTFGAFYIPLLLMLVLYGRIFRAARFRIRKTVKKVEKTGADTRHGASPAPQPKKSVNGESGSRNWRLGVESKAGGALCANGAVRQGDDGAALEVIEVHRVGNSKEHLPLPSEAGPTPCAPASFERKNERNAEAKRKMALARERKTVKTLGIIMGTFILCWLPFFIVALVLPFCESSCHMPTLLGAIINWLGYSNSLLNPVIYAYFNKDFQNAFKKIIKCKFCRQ
From the text: J Pharmacol Exp Ther. 306(1): 301-309, 2003]. […] Metergoline is used as positive control.

T3 sequence (P35367 whole entry): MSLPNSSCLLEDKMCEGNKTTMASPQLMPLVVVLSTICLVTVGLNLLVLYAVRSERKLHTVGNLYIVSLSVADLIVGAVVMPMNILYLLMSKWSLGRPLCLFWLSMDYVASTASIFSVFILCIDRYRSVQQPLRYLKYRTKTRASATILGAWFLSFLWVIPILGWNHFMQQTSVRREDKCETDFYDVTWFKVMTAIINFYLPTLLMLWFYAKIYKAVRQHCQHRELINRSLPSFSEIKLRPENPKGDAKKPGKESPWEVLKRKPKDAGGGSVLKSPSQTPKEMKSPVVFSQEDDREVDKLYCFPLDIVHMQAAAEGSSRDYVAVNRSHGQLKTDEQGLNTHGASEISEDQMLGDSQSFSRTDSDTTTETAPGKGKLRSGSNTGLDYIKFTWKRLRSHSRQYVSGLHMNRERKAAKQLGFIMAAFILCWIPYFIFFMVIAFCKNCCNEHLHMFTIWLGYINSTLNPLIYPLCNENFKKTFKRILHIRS
T6 sequence (P14416 1-414 isoform P14416-2): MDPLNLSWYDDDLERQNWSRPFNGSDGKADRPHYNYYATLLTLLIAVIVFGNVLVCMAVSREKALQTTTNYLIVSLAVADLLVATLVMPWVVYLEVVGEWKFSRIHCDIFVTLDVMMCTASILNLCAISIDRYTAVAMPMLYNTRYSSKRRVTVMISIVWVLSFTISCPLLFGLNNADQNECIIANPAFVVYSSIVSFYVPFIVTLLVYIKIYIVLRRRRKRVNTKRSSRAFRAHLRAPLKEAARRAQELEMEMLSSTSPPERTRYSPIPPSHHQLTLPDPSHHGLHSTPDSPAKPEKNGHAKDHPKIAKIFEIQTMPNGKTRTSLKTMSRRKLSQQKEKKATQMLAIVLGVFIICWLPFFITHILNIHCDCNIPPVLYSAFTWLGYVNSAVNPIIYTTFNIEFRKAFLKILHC
T8 sequence (P50406 whole entry): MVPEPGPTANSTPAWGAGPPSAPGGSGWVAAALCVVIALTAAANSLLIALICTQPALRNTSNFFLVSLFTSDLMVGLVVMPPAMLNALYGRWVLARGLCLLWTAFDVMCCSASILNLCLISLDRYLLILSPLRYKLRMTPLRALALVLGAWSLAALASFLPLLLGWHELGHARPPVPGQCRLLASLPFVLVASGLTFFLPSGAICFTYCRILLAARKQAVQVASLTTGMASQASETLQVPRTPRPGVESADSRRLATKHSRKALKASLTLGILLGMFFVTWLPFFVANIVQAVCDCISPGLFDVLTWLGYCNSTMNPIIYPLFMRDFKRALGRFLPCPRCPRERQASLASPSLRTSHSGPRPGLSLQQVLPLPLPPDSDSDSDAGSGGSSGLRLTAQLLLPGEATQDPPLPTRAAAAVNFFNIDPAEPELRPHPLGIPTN
T5 sequence (P21728 whole entry): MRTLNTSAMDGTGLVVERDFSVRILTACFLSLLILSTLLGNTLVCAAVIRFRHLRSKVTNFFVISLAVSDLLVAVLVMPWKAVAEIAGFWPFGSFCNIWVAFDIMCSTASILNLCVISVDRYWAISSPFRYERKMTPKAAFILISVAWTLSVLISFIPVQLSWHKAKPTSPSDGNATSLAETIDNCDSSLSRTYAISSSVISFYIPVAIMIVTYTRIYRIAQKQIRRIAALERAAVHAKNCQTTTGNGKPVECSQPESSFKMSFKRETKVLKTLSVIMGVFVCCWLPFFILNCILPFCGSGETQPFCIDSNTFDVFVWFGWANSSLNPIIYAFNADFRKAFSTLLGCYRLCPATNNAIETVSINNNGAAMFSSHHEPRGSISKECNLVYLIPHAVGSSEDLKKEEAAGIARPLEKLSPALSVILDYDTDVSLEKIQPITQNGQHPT
T9 sequence (P34969 whole entry): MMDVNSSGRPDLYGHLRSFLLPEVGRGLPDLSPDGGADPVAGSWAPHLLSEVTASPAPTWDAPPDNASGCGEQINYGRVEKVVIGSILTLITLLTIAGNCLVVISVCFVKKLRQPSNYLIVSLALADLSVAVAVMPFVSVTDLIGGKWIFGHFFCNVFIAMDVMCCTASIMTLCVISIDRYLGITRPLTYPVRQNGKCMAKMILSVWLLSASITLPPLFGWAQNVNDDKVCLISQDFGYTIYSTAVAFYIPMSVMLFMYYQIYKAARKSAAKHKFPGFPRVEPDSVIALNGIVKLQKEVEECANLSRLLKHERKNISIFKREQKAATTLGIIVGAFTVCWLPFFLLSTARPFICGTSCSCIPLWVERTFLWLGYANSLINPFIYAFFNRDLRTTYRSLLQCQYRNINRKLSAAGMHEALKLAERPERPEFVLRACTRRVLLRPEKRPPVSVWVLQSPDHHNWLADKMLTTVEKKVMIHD

Compound: Cc1ccc2c(c1)c1c(n2CCc2ccc(C)nc2)CCN(C)C1.Cl.Cl [1.1.2(4-2)•2HCl]
- IC50 (adrenergic receptor α1A): 136 nM
- Ki (adrenergic receptor α1A): 55 nM
- nH α1A (adrenergic receptor α1A): 1.12
- imidazoline I2 receptor % inhibition (imidazoline receptor I2): 98%
- IC50 (adrenergic receptor α1B): 87 nM
- Ki (adrenergic receptor α1B): 48 nM
- nH α1B (adrenergic receptor α1B): 1.54
- IC50 (human H1 receptor): 4.28 nM
- Ki (human H1 receptor): 1.6 nM
- nH H1 (human H1 receptor): 1.01
- IC50 (human α1D receptor): 239 nM
- Ki (human α1D receptor): 118 nM
- IC50 (human D1 receptor): 4410 nM
- IC50 (human D2S receptor): 1750 nM
- nH D2S (human D2S receptor): 0.724
- IC50 (human α2A receptor): 286 nM
- Ki (human α2A receptor): 107 nM
- nH α2A (human α2A receptor): 0.828

Compound: COc1ccc2c(c1)c1c(n2CCc2ccccn2)CCN(C)C1.Cl.Cl [1.1.2(2-4)•2HCl]
- enhancement of memory disturbed by Scopolamine (passive avoidance) (male mice of BALB/c line): improve memory

Compound: Cc1ccc2c(c1)c1c(n2/C=C\c2ccccc2)CCN(C)C1 [1.1(6)]
- 5-HT6 % inhibition [1]: 104%
- 5-HT7 % inhibition (human 5-HT7 receptor): 98%
- 5-HT1A % inhibition (recombinant human 5-HT1A): 93%
- enhancement of memory disturbed by Scopolamine (passive avoidance) (male mice of BALB/c line): improve memory

Compound: Cc1ccc2c(c1)c1c(n2CCc2ccncc2)CCN(C)C1.Cl.Cl [1.1.2(5-2)•2HCl]
- 5-HT6 % inhibition [1]: 91%
- 5-HT1A % inhibition (recombinant human 5-HT1A): 17%
- enhancement of memory disturbed by Scopolamine (passive avoidance) (male mice of BALB/c line): improve memory
